Measured values: patent US9486440B2, “Uses of indole-ketones or indolidones as neuro-protective drugs” (UNIVERSITY OF MACAU, priority 2011, dated 2016)
Entries after “also recorded” stand apart in the source; their conditions may differ.

Legend:
[1] = tested on: VEGFR-2; conditions: cited from earlier work
[2] = tested on: CGNs; assay: MPP+-induced neurotoxicity in CGNs, MTT and LDH assays; format: cell-based, rat; conditions: pre-treatment 2 hours, then 35 μM MPP+ for 24 hours
Description: All animal experiments were conducted according to the ethical guidelines of ICMS, Macau University and the Animal Care Facility, The Hong Kong Polytechnic University. Rat CGNs were prepared from 8-day-old Sprague-Dawley rats (The Animal Care Facility, The Hong Kong Polytechnic University) as described by Li et al., 2005. Briefly, neurons were seeded at a density of 2.7×10^5 cells/ml in basal modified Eagle's medium (Invitrogen) containing 10% fetal bovine serum, 25 mM KCl, 2 mM glutamine, and penicillin (100 units/ml)/streptomycin (100 μg/ml). Cytosine arabinoside (10 μM) was added to the culture medium 24 hour after plating to limit the growth of non-neuronal cells. With the use of this protocol, more than 95% of the cultured cells were granule neurons.
(§1) The percentage of surviving neurons in the presence of SU4312 and/or MPP^+ was estimated by determining the activity of mitochondrial dehydrogenases with 3(4,5-dimethylthiazol-2-yl)-2.5-diphenyltetrazolium bromide (MTT) assay (Li et al., 2007). The assay was performed according to the specifications of the manufacturer (MTT kit I; Roche Applied Science). Briefly, the neurons were cultured in 96-well plates, 10 μl of 5 mg/ml MTT labeling reagent was added to each well containing cells in 100 μl of medium, and the plates were incubated for 4 hours in a humidified incubator at 37° C. After the incubation, 100 μl of the solvating solution (0.01 N HCl in 10% SDS solution) was added to each well for 16-20 hours. Absorbance of the samples was measured at a wavelength of 570 nm with 655 nm as a reference wavelength. Unless otherwise indicated, the extent of MTT conversion in cells exposed to MPP^+ is expressed as a percentage of the control.
Cytotoxicity was determined by measuring the release of lactate dehydrogenase (LDH). Briefly, cells were precipitated by centrifugation at 500 g for 5 min at room temperature, 50 μl of the supernatants was transferred into new wells, and LDH was determined using the in vitro toxicology assay kit (Roche). The absorbance of the samples was measured at a wavelength of 490 nm with 655 nm as a reference wavelength.
Rat CGNs were prepared from 8-day-old Sprague-Dawley rats (The Animal Care Facility, The Hong Kong Polytechnic University) as described by Li et al., 2005. Briefly, neurons were seeded at a density of 2.7×10^5 cells/ml in basal modified Eagle's medium (Invitrogen) containing 10% fetal bovine serum, 25 mM KCl, 2 mM glutamine, and penicillin (100 units/ml)/streptomycin (100 μg/ml). Cytosine arabinoside (10 μM) was added to the culture medium 24 hours after plating to limit the growth of non-neuronal cells. With the use of this protocol, more than 95% of the cultured cells were granule neurons.
as §1, with “The” for “The percentage of surviving neurons in the presence of SU4312 and/or MPP^+ was estimated by determining the activity of mitochondrial dehydrogenases with 3(4,5-dimethylthiazol-2-yl)-2.5-diphenyltetrazolium bromide (MTT) assay (Li et al., 2007). The”, “incubated at 37° C.” for “incubated”, “incubator.” for “incubator at 37° C.”, “The absorbance” for “Absorbance”

[3] = tested on: DA neurons in the zebrafish brain; assay: MPTP zebrafish, whole-mount immunostaining against tyrosine hydroxylase; format: in vivo; conditions: 200 μM MPTP, 2 days from 1 dpf; SU4312 3-30 μM, PTK787/ZK222584 0.3-3 μM, SU5416 0.1-1 μM, VRI 0.03-0.3 μM
Description: (§2) Wild-type zebrafish (AB strain) and Tg (fli-1:EGFP) transgenic zebrafish were maintained as described in the Zebrafish Handbook (Westerfield, 1993). Zebrafish embryos were generated by natural pair-wise mating (3-12 months old) and raised at 28.5° C. in embryo medium (13.7 mM NaCl, 540 μM KCl, pH 7.4, 25 μM Na2HPO4, 44 μM KH2PO4, 300 μM CaCl2, 100 μM MgSO4, 420 μM NaHCO3, pH 7.4). […] An equal concentration of DMSO in embryo medium was used as vehicle control in each experiment.

[4] = tested on: zebrafish larvae; assay: Locomotion behavioral test of zebrafish larvae; format: in vivo; conditions: for MPTP-induced deficit of swimming behavior (total distance travelled): 200 μM MPTP 2 days, then 10 μM MPTP plus drug 3 days, L-deprenyl 20 μM, L-dopa 150 μM
Description: as §2
Thus the MPTP exposure needs to last 5 day from 1 dpf. […] Thus subsequent locomotion behavioral studies were done with 200 μM MPTP for treatment for 2 days at 1 dpf then replacing insult with 10 μM MPTP for incubation for another 3 days.
(§3) After drug treatment, zebrafish larvae at 6 dpf were transferred into 96-well plates (1 fish/well and 12 larvae/group). Fishes responded with excessive stress reaction (such as rapid and disorganized swimming or immobility for 2 min) due to the handling and monitoring of the behavior were discarded. The experiments were performed in a calm enclosed area. The larvae were allowed to habituate to the new environment for 30 min prior to experiments. Behavior was monitored by an automated video tracking system (Viewpoint, ZebraLab, LifeSciences). The 96-well plates and camera were housed inside a Zebrabox and the swimming pattern of each fish was recorded for 10 min and repeated 3 times, once every other 10 min. The total distance moved was defined as the distance (in cm) that the fish had moved during one session (10 min).
Normally as late as 3 dpf, zebrafish larvae show very little spontaneous swimming, but by 5 dpf they spontaneously swim longer distances and independently search for food. The MPTP exposure therefore needs to last 5 days from 1 dpf. […] Thus subsequent locomotion behavioral studies were performed with 200 μM MPTP for 2-day treatment at 1 dpf then replacing with media containing 10 μM MPTP for another 3-day incubation.
as §3, with “The larvae were discarded due to” for “Fishes responded with”, “reaction to the handling and monitoring of behavior” for “reaction”, “min).” for “min) due to the handling and monitoring of the behavior were discarded.”, “sealed” for “enclosed”, “min. Swimming behavior” for “min prior to experiments. Behavior”, “for” for “repeated”

[5] = tested on: intersegmental-vessel (ISV) formation; assay: Intersegmental-vessel formation in Tg(fli-1:EGFP) zebrafish; format: in vivo; conditions: 1 dpf embryos treated 48 hours; SU4312 3-30 μM, PTK787/ZK222584 0.3-3 μM, VRI 0.1-0.3 μM, SU5416 0.3-1 μM
Description: as §2
After drug treatment, zebrafish were removed from microplate and observed for gross morphological changes of blood vessel under a fluorescence microscope (Olympus am Motorized Inverted Microscope, Japan) equipped with a digital camera (DP controller, Soft Imaging System, Olympus). Images were analyzed with Axiovision 4.2 and Adobe Photoshop 7.0.
(§4) Wild-type zebrafish (AB strain) and Tg(fli-1:EGFP) transgenic zebrafish were maintained as described in the Zebrafish Handbook (Westerfield, 1993). Zebrafish embryos were generated by natural pair-wise mating (3-12 months old) and were raised at 28.5° C. in embryo medium (13.7 mM NaCl, 540 μM KCl, pH 7.4, 25 μM Na2HPO4, 44 μM KH2PO4, 300 μM CaCl2, 100 μM MgSO4, 420 μM NaHCO3, pH 7.4). […] Equal concentration of DMSO in embryo medium was used as vehicle control in each experiment.
After drug treatment, zebrafish were removed from the microplate and observed for gross morphological changes of blood vessel under a fluorescence microscope (Olympus am Motorized Inverted Microscope, Japan) equipped with a digital camera (DP controller, Soft Imaging System, Olympus). Images were analyzed with Axiovision 4.2 and Adobe Photoshop 7.0.

[6] = tested on: zebrafish; assay: Toxicity to zebrafish; format: in vivo; conditions: SU5416 10 μM, VRI 3 μM, SU4312 up to 30 μM
Description: as §2, §4

[7] = molecular target: nNOS (Homo sapiens, UniProt P29475); conditions: cited from earlier work
[8] = molecular target: iNOS (Homo sapiens, UniProt P35228); conditions: cited from earlier work
[9] = tested on: CGNs; assay: Low potassium-induced cell death in CGNs, MTT assay; format: cell-based; conditions: 5 mM KCl BME medium, 24 hours; sunitinib 0.1-2 μM
Description: Cell viability was measured by MTT assay at 24 hours after low potassium challenge. […] After 24 hours of low potassium challenge, CGNs were assayed with an FDA/PI double staining. […] After 24 hours of low potassium challenge, CGNs were assayed with Hoechst staining. The number of apoptotic nuclei with condensed chromatin were counted from representative Hoechst staining photomicrographs and represented as a percentage of the total number of nuclei counted. […] Intracellular NO level was measured using DAF-FM diacetate as a probe at 4 hour after low potassium challenge. Data, expressed as percentage of control (CGNs were cultured in high potassium medium), were the mean±SEM of three separate experiments; *p<0.05 and **p<0.01 versus low potassium group in (A) and (D) or versus control in (C); ^##p<0.01 versus low potassium group in (C) (Turkey's test).
It was previously reported that low potassium could induce typical apoptosis in cerebellar granule neurons (CGNs) (Fu et al., 2008). […] Cell viability was measured with an MTT assay 24 hours after the low potassium treatment.

Structure (SMILES)	IC50 [1] [nM]	MPP+-induced cell death (cell viability, MTT and LDH assays) [2]	MPTP-induced deficit of swimming behavior (total distance travelled) [4]	other results
CN(C)c1ccc(/C=C2\C(=O)Nc3ccccc32)cc1 [cis-SU4312]	800	–	–	–
CC(=N)NCc1cccc(CN)c1 [1400W]	–	failed to block neuronal death; also recorded: did not show protection	–	–
O=C1Nc2ccc(Br)cc2/C1=C/c1cc2c([nH]1)CCCC2 [VRI]	70000	at 1 and 3 μM failed to block neuronal loss in vitro	but not VRI ameliorated the MPTP-induced deficit of swimming behavior	MPTP-induced loss of DA neurons / decrease of TH+ region area [3]: could not prevent MPTP-induced decrease in TH^+ region area; swimming behavior of normal zebrafish larvae, drug alone ([4]; zebrafish, in vivo): Neither SU5416 nor VRI treatment alone notably altered the swimming behavior; inhibition of intersegmental-vessel (ISV) formation [5]: inhibited the formation of intersegmental-vessels; toxicity to zebrafish [6]: showed toxicity to zebrafish
CCSC(=N)N [EPTU, 2-ethyl-2-thiopseudourea]	–	prevented MPP^+-induced neuronal death in CGNs	–	IC50 [7]: 36 nM; IC50 [8]: 17 nM
N[C@@H](Cc1ccc(O)c(O)c1)C(=O)O [levodopa]	–	–	rescued	–
CN(C)c1ccc(/C=C2/C(=O)Nc3ccccc32)cc1 [trans-SU4312]	5200	–	–	–
C#CCN(C)[C@H](C)Cc1ccccc1 [L-deprenyl]	–	–	rescued	–
CNC(=N)NCCC[C@H](N)C(=O)O [L-NMMA]	–	–	–	low potassium-induced cell death (MTT) [9]: at 10-20 μM prevented low potassium-induced neuronal death in CGNs
